ChEMBL document CHEMBL4706545, “Antiproliferative effect of mitochondria-targeting allobetulin 1,2,3-triazolium salt derivatives and their mechanism of inducing apoptosis of cancer cells” (Eur J Med Chem, 2020)
Activity calls are given as the source filed them. The rule behind the calls is not given here.

What was measured:
ECa-109 cell line [1] = assay: Induction of ROS-mediated apoptosis in human ECa-109 cells assessed as viable cells at 1 uM incubated for 48 hrs by annexin V-PE and 7-AAD staining based flow cytometry analysis (reference value: 92.7 %); type: functional; conditions: read-out: Activity
ECa-109 cell line [2] = assay: Induction of ROS-mediated apoptosis in human ECa-109 cells assessed as necrotic cells at 4 uM incubated for 48 hrs in presence of NAC by annexin V-PE and 7-AAD staining based flow cytometry analysis (reference value: 1.09 %); type: functional
ECa-109 cell line [3] = assay: Induction of apoptosis in human ECa-109 cells at 1 to 4 uM incubated for 48 hrs by AO/PI staining based fluorescence microscopic analysis; type: functional, cell-based; conditions: dose 1-4 µM
ECa-109 cell line [4] = assay: Induction of apoptosis in human ECa-109 cells assessed as necrotic cells at 2 uM incubated for 48 hrs by annexin-V-FITC and PI staining based fluorescence microscopic analysis (reference value: 1.19 %); type: functional
ECa-109 cell line [5] = assay: Induction of cell cycle arrest in human ECa-109 cells assessed as accumulation in G2/M phase at 1 uM incubated for 48 hrs by PI staining based flow cytometry analysis (reference value: 8.39 %); type: functional
ECa-109 cell line [6] = assay: Induction of cell cycle arrest in human ECa-109 cells assessed as accumulation in S phase at 4 uM incubated for 48 hrs by PI staining based flow cytometry analysis (reference value: 39.33 %); type: functional
ECa-109 cell line [7] = assay: Induction of ROS-mediated apoptosis in human ECa-109 cells assessed as early apoptotic cells at 4 uM incubated for 48 hrs by annexin V-PE and 7-AAD staining based flow cytometry analysis (reference value: 2.70 %); type: functional
ECa-109 cell line [8] = assay: Induction of cell cycle arrest in human ECa-109 cells assessed as accumulation in G2/M phase at 2 uM incubated for 48 hrs by PI staining based flow cytometry analysis (reference value: 8.39 %); type: functional
ECa-109 cell line [9] = assay: Induction of apoptosis in human ECa-109 cells assessed as early apoptotic cells at 4 uM incubated for 48 hrs by annexin-V-FITC and PI staining based fluorescence microscopic analysis (reference value: 0.971 %); type: functional
ECa-109 cell line [10] = assay: Induction of apoptosis in human ECa-109 cells assessed as upregulation of Bax incubated for 48 hrs by Western blot analysis; type: functional, cell-based; conditions: dose 1-4 µM
ECa-109 cell line [11] = assay: Induction of ROS-mediated apoptosis in human ECa-109 cells assessed as necrotic cells at 4 uM incubated for 48 hrs by annexin V-PE and 7-AAD staining based flow cytometry analysis (reference value: 0.729 %); type: functional
ECa-109 cell line [12] = assay: Induction of ROS-mediated apoptosis in human ECa-109 cells assessed as early apoptotic cells at 4 uM incubated for 48 hrs in presence of NAC by annexin V-PE and 7-AAD staining based flow cytometry analysis (reference value: 1.90 %); type: functional
ECa-109 cell line [13] = assay: Induction of apoptosis in human ECa-109 cells assessed as early apoptotic cells at 2 uM incubated for 48 hrs by annexin-V-FITC and PI staining based fluorescence microscopic analysis (reference value: 0.971 %); type: functional
SGC-7901 [14] = assay: Induction of apoptosis in human SGC-7901 cells assessed as decrease in caspase-3 incubated for 48 hrs by Western blot analysis; type: functional, cell-based; conditions: dose 1-4 µM
SGC-7901 [15] = assay: Induction of apoptosis in human SGC-7901 cells assessed as decrease in PARP incubated for 48 hrs by Western blot analysis; type: functional, cell-based; conditions: dose 1-4 µM
SGC-7901 [16] = assay: Induction of cell cycle arrest in human SGC-7901 cells assessed as accumulation in S phase at 2 uM incubated for 48 hrs by PI staining based flow cytometry analysis (reference value: 31.13 %); type: functional
SGC-7901 [17] = assay: Induction of ROS-mediated apoptosis in human SGC-7901 cells assessed as necrotic cells at 4 uM incubated for 48 hrs in presence of NAC by annexin V-PE and 7-AAD staining based flow cytometry analysis (reference value: 0.623 %); type: functional
SGC-7901 [18] = assay: Induction of apoptosis in human SGC-7901 cells assessed as early apoptotic cells at 1 uM incubated for 48 hrs by annexin-V-FITC and PI staining based fluorescence microscopic analysis (reference value: 1.87 %); type: functional
SGC-7901 [19] = assay: Induction of ROS-mediated apoptosis in human SGC-7901 cells assessed as late apoptotic cells at 1 uM incubated for 48 hrs by annexin V-PE and 7-AAD staining based flow cytometry analysis (reference value: 3.82 %); type: functional
SGC-7901 [20] = assay: Induction of ROS-mediated apoptosis in human SGC-7901 cells assessed as early apoptotic cells at 2 uM incubated for 48 hrs by annexin V-PE and 7-AAD staining based flow cytometry analysis (reference value: 1.89 %); type: functional
SGC-7901 [21] = assay: Induction of ROS-mediated apoptosis in human SGC-7901 cells assessed as viable cells at 1 uM incubated for 48 hrs in presence of NAC by annexin V-PE and 7-AAD staining based flow cytometry analysis (reference value: 94.8 %); type: functional; conditions: read-out: Activity
SGC-7901 [22] = assay: Induction of apoptosis in human SGC-7901 cells assessed as late apoptotic cells incubated for 48 hrs by annexin-V-FITC and PI staining based fluorescence microscopic analysis; type: functional, cell-based; conditions: dose 1-4 µM
SGC-7901 [23] = assay: Induction of cell cycle arrest in human SGC-7901 cells assessed as accumulation in S phase at 4 uM incubated for 48 hrs by PI staining based flow cytometry analysis (reference value: 31.13 %); type: functional
SGC-7901 [24] = assay: Induction of ROS-mediated apoptosis in human SGC-7901 cells assessed as late apoptotic cells at 2 uM incubated for 48 hrs by annexin V-PE and 7-AAD staining based flow cytometry analysis (reference value: 3.82 %); type: functional
SGC-7901 [25] = assay: Induction of ROS generation in human SGC-7901 cells incubated for 48 hrs by DCFH-DA staining based fluorescence microscopic analysis; type: functional, cell-based; conditions: dose 1-4 µM
SGC-7901 [26] = assay: Induction of ROS-mediated apoptosis in human SGC-7901 cells assessed as late apoptotic cells at 1 uM incubated for 48 hrs in presence of NAC by annexin V-PE and 7-AAD staining based flow cytometry analysis (reference value: 3.45 %); type: functional
SGC-7901 [27] = assay: Induction of apoptosis in human SGC-7901 cells assessed as necrotic cells at 1 uM incubated for 48 hrs by annexin-V-FITC and PI staining based fluorescence microscopic analysis (reference value: 1.03 %); type: functional
SGC-7901 [28] = assay: Induction of apoptosis in human SGC-7901 cells assessed as nuclear fragmentation at 1 to 4 uM incubated for 48 hrs by Hoechst staining based fluorescence microscopic analysis; type: functional, cell-based; conditions: dose 1-4 µM
SGC-7901 [29] = assay: Induction of ROS-mediated apoptosis in human SGC-7901 cells assessed as viable cells at 4 uM incubated for 48 hrs by annexin V-PE and 7-AAD staining based flow cytometry analysis (reference value: 93.6 %); type: functional; conditions: read-out: Activity
SGC-7901 [30] = assay: Induction of ROS-mediated apoptosis in human SGC-7901 cells assessed as early apoptotic cells at 4 uM incubated for 48 hrs in presence of NAC by annexin V-PE and 7-AAD staining based flow cytometry analysis (reference value: 1.15 %); type: functional
SGC-7901 [31] = assay: Induction of apoptosis in human SGC-7901 cells assessed as downregulation of Bcl-xl incubated for 48 hrs by Western blot analysis; type: functional, cell-based; conditions: dose 1-4 µM
SGC-7901 [32] = assay: Induction of ROS-mediated apoptosis in human SGC-7901 cells assessed as early apoptotic cells at 2 uM incubated for 48 hrs in presence of NAC by annexin V-PE and 7-AAD staining based flow cytometry analysis (reference value: 1.15 %); type: functional

Question: For `COc1ccccc1Cn1n[n+](C)c2c1C(C)(C)[C@@H]1CC[C@]3(C)[C@H](CC[C@@H]4[C@H]5[C@H]6OC[C@@]5(CCC6(C)C)CC[C@]43C)[C@@]1(C)C2.[I-]`, which viability at 1 µM (ECa-109 cell line [1]) is on record?
Answer: Its viability at 1 µM is 66.9%.

Question: And the Activity (ECa-109 cell line [2])?
Answer: The Activity was 3.83%.

Question: And the Activity (ECa-109 cell line [3])?
Answer: Its Activity is “Active”.

Question: And the Activity (ECa-109 cell line [4])?
Answer: The Activity was 1.32%.

Question: What about the Activity (ECa-109 cell line [5]) of the same compound?
Answer: The Activity was 10.81%.

Question: What about the Activity (ECa-109 cell line [6]) of the same compound?
Answer: The Activity was 43.8%.

Question: And the Activity (ECa-109 cell line [7])?
Answer: The Activity was 2%.

Question: And the Activity (ECa-109 cell line [8])?
Answer: The Activity was 16.84%.

Question: What about the Activity (ECa-109 cell line [9]) of the same compound?
Answer: Its Activity is 2.92%.

Question: What about the Activity (ECa-109 cell line [10]) of the same compound?
Answer: Its Activity is “Dose-dependent effect”.

Question: What about the Activity (ECa-109 cell line [11]) of the same compound?
Answer: Its Activity is 2.19%.

Question: What about the Activity (ECa-109 cell line [12]) of the same compound?
Answer: The Activity was 3.5%.

Question: What about the Activity (ECa-109 cell line [13]) of the same compound?
Answer: The Activity was 20.5%.

Question: For `C[n+]1nn(Cc2c(F)cccc2Cl)c2c1C[C@]1(C)[C@H]3CC[C@@H]4[C@H]5[C@H]6OC[C@@]5(CCC6(C)C)CC[C@@]4(C)[C@]3(C)CC[C@H]1C2(C)C.[I-]`, which Activity (SGC-7901 [14]) is on record?
Answer: The Activity was “Dose-dependent effect”.

Question: And the Activity (SGC-7901 [15])?
Answer: Its Activity is “Dose-dependent effect”.

Question: What about the Activity (SGC-7901 [16]) of the same compound?
Answer: The Activity was 15.76%.

Question: What about the Activity (SGC-7901 [17]) of the same compound?
Answer: Its Activity is 2.66%.

Question: What about the Activity (SGC-7901 [18]) of the same compound?
Answer: The Activity was 10.7%.

Question: What about the Activity (SGC-7901 [19]) of the same compound?
Answer: The Activity was 4.97%.

Question: And the Activity (SGC-7901 [20])?
Answer: Its Activity is 26.5%.

Question: And the viability at 1 µM (SGC-7901 [21])?
Answer: The viability at 1 µM was 87.7%.

Question: What about the Activity (SGC-7901 [22]) of the same compound?
Answer: The Activity was “Dose-dependent effect”.

Question: And the Activity (SGC-7901 [23])?
Answer: The Activity was 22.27%.

Question: What about the Activity (SGC-7901 [24]) of the same compound?
Answer: The Activity was 12.3%.

Question: What about the Activity (SGC-7901 [25]) of the same compound?
Answer: The Activity was “Dose-dependent effect”.

Question: And the Activity (SGC-7901 [26])?
Answer: Its Activity is 4.96%.

Question: And the Activity (SGC-7901 [27])?
Answer: Its Activity is 1.56%.

Question: And the Activity (SGC-7901 [28])?
Answer: Its Activity is “Active”.

Question: And the viability at 4 µM (SGC-7901 [29])?
Answer: The viability at 4 µM was 0.152%.

Question: And the Activity (SGC-7901 [30])?
Answer: Its Activity is 4.28%.

Question: And the Activity (SGC-7901 [31])?
Answer: Its Activity is “Dose-dependent effect”.

Question: And the Activity (SGC-7901 [32])?
Answer: The Activity was 19.5%.
